For series [1] the following is noted: cited from earlier work.
The nature of series [2]: In vivo pharmacokinetic study of DCCTX and Gom A in rats. To be noted: Sprague-Dawley, rat, plasma, iv, 300 mg/kg; for AUC(0-t): read-out: AUC0–8h; for MRT last: read-out: MRT0–8h. How it is done:
Rats were randomly divided into five groups (groups 1−5, n = 6), respectively. To determine the short- and long-term effect of single-dose Gom A pretreatment on CYP3A metabolism of CTX, Gom A and CTX were administered to rats with different time intervals in groups 2−5. In brief, rats in group 1 (CTX alone group) were i.g. administered with saline (10 mL/kg, vehicle control), and rats in groups 2−5 were given Gom A (i.g.) at the dose of 20.8 mg/kg (50 μmol/kg). Rats in group 1 were intravenously (i.v.) administered with CTX (300 mg/kg) 0.5 h after saline administration. In groups 2–5, rats were given CTX (i.v.) 0.5, 6, 24 and 72 h after Gom A pretreatment, respectively. Mesna was injected (420 mg/kg, i.v.) 1 hour after CTX administration in all groups to prevent bladder injury in accordance with clinical practice.
Blood samples were collected from the postocular vein at 0.083, 0.25, 0.5, 1, 2, 3, 4, 6, 8, 12 and 24 h after CTX injection. Samples were transferred to heparin tubes and centrifuged at 5000 rpm for 15 min. Plasma was obtained and stored at −20 °C until required for further analysis.
UHPLC-MS/MS method (I): 6OH-Tes concentrations were analyzed according to the previous reports with slight modifications (Supplementary Figure S3). The terminated sample were centrifuged at 14,000 rpm for 10 min, 10 μL of each supernatant was injected into the UHPLC-MS/MS system for analysis. In general, an Agilent Elipse Plus 2.1 × 50 mm column packed with 1.8 µm C18 was applied. The column temperature was set as 30 °C at a flow rate of 0.3 mL/min. The mobile phase was consisted of aqueous 1% formic acid with the addition of 10 mM ammonium acetate solution (A) and methanol (B) with the gradient elution program set as follow: 5–50–80% B from 0–1–4 min. The ion transitions were m/z 305.0→269.0 for 6OH-Tes and m/z 181.0→111.0 for phenacetin (IS-I). UHPLC-MS method (II): DCCTX concentrations were determined using our previously developed UHPLC-MS/MS method (Supplementary Figure S4). For pharmacokinetic study, plasma samples were diluted 30-fold with plasma from drug-free rats. After vortexing for 2 min, 100 μL of each diluted sample was mixed with 400 μL acetonitrile (containing 6 ng/mL TNZ (IS-II), vortexed, and centrifuged at 14,000 rpm for 10 min. 100 μL supernatant of each sample was mixed with 400 μL aqueous solution containing 10% acetonitrile followed by a rough centrifugation. For HLMs inhibition study, samples were vortexed for 1 min after reaction termination, and the mixture was then centrifuged at 14,000 rpm for 10 min. After centrifugation, the obtained supernatant (5 μL) was injected into the UHPLC-MS/MS system, using methanol/10 mM ammonium acetate aqueous solution as the mobile phase at a flow rate of 0.25 mL/min. The ion transitions were set as m/z 199.2→78 for DCCTX and m/z 248.1→121.1 for TNZ (IS-II). UHPLC-MS/MS method (III): Gom A concentrations were determined using slightly modified LC/MS method which developed by our laboratory. Briefly, a 100 µL plasma sample was transferred to a 10 mL centrifuge tube with addition of 20 µL IS solution and 20 µL water/acetonitrile (90:10, v/v), vortexed for 30 s and then extracted using 3 mL methyl tertiary butyl ether. After extraction, the sample was centrifuged at 5000 rpm for 10 min. The organic layer was quantitatively transferred to a 5 mL glass tube and evaporated to dryness at 35 °C. Then the dried extract was reconstituted in 100 µL solvent (water–acetonitrile, 20:80, v/v) followed by injection of 10 µL aliquot into LC-MS/MS system. Separation was performed on a Zorbax SB-C18 reserved-phase column (100 mm × 2.1 mm i.d., 3.5 µm) with the mobile phase consisting of acetonitrile, methanol and water −0.1% formic acid (72:18:10, v/v/v) at a flow rate of 0.3 mL/min. The ion transitions were set as m/z 399→329 for Gom A and m/z 387.0→145.0 for bifendate (IS-III). […]

Setting [3] is: Group 1: CTX 300 mg/kg i.v. alone (saline 0.5 h before).
The mark [4] stands for this setting: Group 2: CTX 300 mg/kg i.v. 0.5 h after Gom A 20.8 mg/kg i.g.
Where [5] appears, read: Group 3: CTX 300 mg/kg i.v. 6 h after Gom A 20.8 mg/kg i.g.
Setting [6] is: Group 4: CTX 300 mg/kg i.v. 24 h after Gom A 20.8 mg/kg i.g.
[7] abbreviates: Group 5: CTX 300 mg/kg i.v. 72 h after Gom A 20.8 mg/kg i.g.

Read-outs that look alike come from different tables or passages of the source.

As for `O=P1(N(CCCl)CCCl)NCCCO1` (stereo not drawn) [CTX, cyclophosphamide], in series [1], the “plasma protein binding rate” value is on record as “approximately 9%”.

Regarding `O=P1(NCCCl)NCCCO1` (stereo not drawn) [DCCTX, 2-dechloroethylcyclophosphamide], the Cmax – broadly, the highest concentration seen after dosing – in series [2] (setting [3]) amounted to 8600 ± 1300 ng/mL; in series [2] (setting [4]), 1900 ± 200 ng/mL; in series [2] (setting [5]), 2600 ± 500 ng/mL; in series [2] (setting [6]), 16200 ± 1200 ng/mL; in series [2] (setting [7]) it was 20000 ± 3100 ng/mL. In addition, the Tmax – broadly, the time at which the peak concentration occurs – in series [2] (setting [3]) came to 2 ± 0.1 h; in series [2] (setting [4]), 2.9 ± 0.6 h; in series [2] (setting [5]), 3.7 ± 0.8 h; in series [2] (setting [6]) it was 2 ± 0.1 h; in series [2] (setting [7]), 3.3 ± 0.5 h. Further, the half-life (usually how long it takes for the measured level to halve) is 2.2 ± 0.5 h in series [2] (setting [3]); 3.1 ± 0.9 h in series [2] (setting [4]); 3.2 ± 0.8 h in series [2] (setting [5]); 2 ± 0.4 h in series [2] (setting [6]); 3.8 ± 1.2 h in series [2] (setting [7]). In addition, the AUC(0-t) worked out at 32500 ± 8400 ng·h/mL in series [2] (setting [3]); 8900 ± 300 ng·h/mL in series [2] (setting [4]); 11800 ± 2500 ng·h/mL in series [2] (setting [5]); 65900 ± 12400 ng·h/mL in series [2] (setting [6]); 79200 ± 19100 ng·h/mL in series [2] (setting [7]). For the same compound, the MRT last came out at 3.3 ± 0.2 h in series [2] (setting [3]); 3.8 ± 0.2 h in series [2] (setting [4]); 4.2 ± 0.1 h in series [2] (setting [5]); 3.3 ± 0.2 h in series [2] (setting [6]); 3.7 ± 0.2 h in series [2] (setting [7]).

Turning to `C=CC[C@@H]1/C=C(\C)C[C@H](C)C[C@H](OC)[C@H]2O[C@@](O)(C(=O)C(=O)N3CCCC[C@H]3C(=O)O[C@H](/C(C)=C/[C@@H]3CC[C@@H](O)[C@H](OC)C3)[C@H](C)[C@@H](O)CC1=O)[C@H](C)C[C@@H]2OC` [Tacrolimus], the “plasma protein binding” value in series [1] is listed as “strongly bound to plasma protein”.

The record behind these values is article PMC6152024 (Molecules : A Journal of Synthetic Chemistry and Natural …, 2017).
